Results reported in patent US20030162763A1, “Novel cephalosporin compounds and process for preparing the same” (priority 2000, published 2003).
≈ marks a conversion by molar mass, not a printed value. Where two headings read alike, the source gives them in different places.

How the values were obtained:
Assay in all cases: Minimum Inhibitory Concentration (MIC), agar dilution
E. faecalis L239 = format: cell-based; conditions: Enterococcus faecalis, read-out: Sensitivity test result (MIC), E. faecalis L239
Method: (§1) The effectiveness of the compound according to the present invention was determined by obtaining Minimum Inhibitory Concentration (MIC) of the compounds prepared by the above examples (I-1 to I-6) and vancomycin, which is the known compound having a potent activity against gram-positive strains, as the control drug against the standard strains. Specifically, Minimum Inhibitory Concentration was obtained by diluting the test material with a double dilution method, dispersing them in Mueller-Hinton agar medium, inoculating each of the test strain having 10^7 cfu (colony forming unit) per ml in an amount of 2 μl to the medium and then incubating them at 37° C. for 20 hours. From the result of Minimum Inhibitory Concentration test, it can be seen that the compound according to the present invention has a good activity against major pathogenic microorganisms, which cause hospital infection, including MRSA strains.

S. epidermidis R005 = format: cell-based; conditions: for MIC: Staphylococcus epidermidis, read-out: Sensitivity test result (MIC), S. epidermidis R005
Method: as §1

[1] = system: Staphylococcus aureus giorgio; format: cell-based; conditions: for MIC: Staphylococcus aureus, read-out: Sensitivity test result (MIC), Staphylococcus aureus giorgio
Method: as §1

S. aureus 241 = format: cell-based, Staphylococcus aureus; conditions: read-out: Sensitivity test result (MIC), S. aureus 241
Method: as §1

S. aureus 77 = format: cell-based, Staphylococcus aureus; conditions: for MIC: read-out: Sensitivity test result (MIC), S. aureus 77
Method: as §1

E. faecalis EFS004 = format: cell-based; conditions: Enterococcus faecalis, read-out: Sensitivity test result (MIC), E. faecalis EFS004
Method: as §1

[2] = system: Staphylococcus aureus K311; format: cell-based; conditions: read-out: Sensitivity test result (MIC), Staphylococcus aureus K311
Method: as §1

[3] = L239, Table 1, Mueller-Hinton agar, 37° C., 20 hours
[4] = R005, Table 1, Mueller-Hinton agar, 37° C., 20 hours
[5] = Table 1, Mueller-Hinton agar, 37° C., 20 hours
[6] = Staphylococcus aureus, 241, Table 1, Mueller-Hinton agar, 37° C., 20 hours
[7] = Staphylococcus aureus, 77, Table 1, Mueller-Hinton agar, 37° C., 20 hours
[8] = EFS004, Table 2, Mueller-Hinton agar, 37° C., 20 hours
[9] = R005, Table 2, Mueller-Hinton agar, 37° C., 20 hours
[10] = K311, Table 2, Mueller-Hinton agar, 37° C., 20 hours
[11] = Table 2, Mueller-Hinton agar, 37° C., 20 hours
[12] = Staphylococcus aureus, 77, Table 2, Mueller-Hinton agar, 37° C., 20 hours

Row | MIC (E. faecalis L239; [3]) | MIC (S. epidermidis R005; [4]) | MIC [1, 5] | MIC (S. aureus 241; [6]) | MIC (S. aureus 77; [7]) | SMILES | other results
1 | 2 µg/mL (≈ 3.57 µM) | 0.5 µg/mL (≈ 0.892 µM) | 0.031 µg/mL (≈ 0.0553 µM) | 4 µg/mL (≈ 7.14 µM) | 0.5 µg/mL (≈ 0.892 µM) | Nc1nc(O)cc(SC2=C(C(=O)O)N3C(=O)[C@@H](NC(=O)CSc4cc(Cl)ccc4Cl)[C@H]3SC2)n1 [Compound I-2, (6R,7R)-3-[(2-amino-6-hydroxy-4-pyrimidinyl)sulfanyl]-7-({2-[(2,5-dichloro-phenyl)sulfanyl]acetyl}amino)-8-oxo-5-thia-1-azabicyclo[4.2.0]oct-2-ene-2-carboxylic acid] | 
2 | 2 µg/mL (≈ 3.57 µM) | 0.25 µg/mL (≈ 0.447 µM) | < 0.008 µg/mL | 2 µg/mL (≈ 3.57 µM) | 0.25 µg/mL (≈ 0.447 µM) | Nc1cc(SC2=C(C(=O)O)N3C(=O)[C@@H](NC(=O)CSc4cc(Cl)ccc4Cl)[C@H]3SC2)nc(N)n1 [Compound I-1, (6R,7R)-3-[(2,6-diamino-4-pyrimidinyl)sulfanyl]-7-({2-[(2,5-dichlorophenyl)-sulfanyl]acetyl}amino)-8-oxo-5-thia-1-azabicyclo[4.2.0]oct-2-ene-2-carboxylic acid] | 
3 |  |  |  |  |  | Nc1cc(SC2=C(C(=O)O)N3C(=O)[C@@H](NC(=O)CSc4cc(Cl)nc(Cl)c4)[C@H]3SC2)nc(N)n1 [Compound I-5, (6R,7R)-3-[(2,6-diamino-4-pyrimidinyl)sulfanyl]-7-({2-[(2,6-dichloro-4-pyridinyl)sulfanyl]acetyl}amino)-8-oxo-5-thia-1-azabicyclo[4.2.0]oct-2-ene-2-carboxylic acid] | MIC (E. faecalis EFS004; [8]): 4 µg/mL (≈ 7.14 µM); MIC (S. epidermidis R005; [9]): 1 µg/mL (≈ 1.78 µM); MIC [2, 10]: 1 µg/mL (≈ 1.78 µM); MIC [1, 11]: 0.063 µg/mL (≈ 0.112 µM); MIC (S. aureus 77; [12]): 1 µg/mL (≈ 1.78 µM)
4 |  |  |  |  |  | Nc1nc(O)cc(SC2=C(C(=O)O)N3C(=O)[C@@H](NC(=O)CSc4cc(Cl)nc(Cl)c4)[C@H]3SC2)n1 [Compound I-6, (6R,7R)-3-[(2-amino-6-hydroxy-4-pyrimidinyl)sulfanyl]-7-({2-[(2,6-dichloro-4-pyridinyl)sulfanyl]acetyl}amino)-8-oxo-5-thia-1-azabicyclo[4.2.0]oct-2-ene-2-carboxylic acid] | MIC (E. faecalis EFS004; [8]): 2 µg/mL (≈ 3.56 µM); MIC (S. epidermidis R005; [9]): 0.5 µg/mL (≈ 0.891 µM); MIC [2, 10]: 1 µg/mL (≈ 1.78 µM); MIC [1, 11]: 0.063 µg/mL (≈ 0.112 µM); MIC (S. aureus 77; [12]): 2 µg/mL (≈ 3.56 µM)
5 |  |  |  |  |  | CN[C@H](CC(C)C)C(=O)N[C@H]1C(=O)N[C@@H](CC(N)=O)C(=O)N[C@H]2C(=O)N[C@H]3C(=O)N[C@H](C(=O)N[C@H](C(=O)O)c4cc(O)cc(O)c4-c4cc3ccc4O)[C@H](O)c3ccc(c(Cl)c3)Oc3cc2cc(c3O[C@@H]2O[C@H](CO)[C@@H](O)[C@H](O)[C@H]2O[C@H]2C[C@](C)(N)[C@H](O)[C@H](C)O2)Oc2ccc(cc2Cl)[C@H]1O [Vancomycin, vancomycin, reference compound] | MIC (E. faecalis EFS004; EFS004, 20 h): 1 µg/mL (≈ 0.69 µM); MIC (E. faecalis L239; L239, 20 h): 2 µg/mL (≈ 1.38 µM); MIC (S. epidermidis R005; R005, 20 h): 1 µg/mL (≈ 0.69 µM); Sensitivity test result (MIC), S. epidermidis R005 (S. epidermidis R005; [11]): 1 µg/mL; MIC ([2]; K311, 20 h): 2 µg/mL (≈ 1.38 µM); MIC ([1]; 20 h): 1 µg/mL (≈ 0.69 µM); Sensitivity test result (MIC), Staphylococcus aureus giorgio [1, 11]: 1 µg/mL; MIC (S. aureus 241; Staphylococcus aureus, 241, 20 h): 2 µg/mL (≈ 1.38 µM); MIC (S. aureus 77; Staphylococcus aureus, 77, 20 h): 1 µg/mL (≈ 0.69 µM); Sensitivity test result (MIC), S. aureus 77 (S. aureus 77; [11]): 1 µg/mL
6 | 2 µg/mL (≈ 3.57 µM) | 0.5 µg/mL (≈ 0.892 µM) | 0.016 µg/mL (≈ 0.0285 µM) | 4 µg/mL (≈ 7.14 µM) | 1 µg/mL (≈ 1.78 µM) | Nc1cc(SC2=C(C(=O)O)N3C(=O)[C@@H](NC(=O)CSc4c(Cl)cccc4Cl)[C@H]3SC2)nc(O)n1 [Compound I-3, (6R,7R)-3-[(6-amino-2-hydroxy-4-pyrimidinyl)sulfanyl]-7-({2-[(2,6-dichloro-phenyl)sulfanyl]acetyl}amino)-8-oxo-5-thia-1-azabicyclo[4.2.0]oct-2-ene-2-carboxylic acid] | 
7 | > 64 µg/mL | 32 µg/mL (≈ 72.2 µM) | 4 µg/mL (≈ 9.02 µM) | > 64 µg/mL | 32 µg/mL (≈ 72.2 µM) | Nc1ccnc(SC2=C(C(=O)O)N3C(=O)[C@@H](NC(=O)Cc4ccccc4)[C@H]3SC2)n1 [Compound I-4, (6R,7R)-3-[(4-amino-2-pyrimidinyl)sulfanyl]-8-oxo-7-[(phenylacetyl)amino]-5-thia-1-azabicyclo[4.2.0]oct-2-ene-2-carboxylic acid] | 
